Experimental data as given in PMC6407917, “Identification of GSK3186899/DDD853651 as a Preclinical Development Candidate for the Treatment of Visceral Leishmaniasis” (Journal of Medicinal Chemistry, 2018).

Experiments:
Assay in all cases: biochemical
Design in all cases: species or system HEK293/K-562/placenta mixed human extract; Kinobeads chemoproteomic competition binding, quantified by TMT LC-MS/MS, dose response up to 20 uM
CHEK2 = CHEK2 (Homo sapiens, UniProt O96017)
CSNK1E = CSNK1E (Homo sapiens, UniProt P49674)
DSTYK = DSTYK (Homo sapiens, UniProt Q6XUX3)
DYRK1A = DYRK1A (Homo sapiens, UniProt Q13627)
FGFR1 = FGFR1 (Homo sapiens, UniProt P11362)
GSK3A = GSK3A (Homo sapiens, UniProt P49840)
IKBKB = IKBKB (Homo sapiens, UniProt O14920)
JAK1 = JAK1 (Homo sapiens, UniProt P23458)
MAP3K15 = MAP3K15 (Homo sapiens, UniProt Q6ZN16)
MAP3K9 = MAP3K9 (Homo sapiens, UniProt P80192)
MAP4K3 = MAP4K3 (Homo sapiens, UniProt Q8IVH8)
MARK3 = MARK3 (Homo sapiens, UniProt P27448)
MARK4 = MARK4 (Homo sapiens, UniProt Q96L34)
MELK = MELK (Homo sapiens, UniProt Q14680)
NEK1 = NEK1 (Homo sapiens, UniProt Q96PY6)
NEK9 = NEK9 (Homo sapiens, UniProt Q8TD19)
NUAK1 = NUAK1 (Homo sapiens, UniProt O60285)
PRKACA = PRKACA (Homo sapiens, UniProt P17612)
PRKAG1 = PRKAG1 (Homo sapiens, UniProt P54619)
PRKG1 = PRKG1 (Homo sapiens, UniProt Q13976)
ULK3 = ULK3 (Homo sapiens, UniProt Q6PHR2)

Measured: IC50

Sequence of IKBKB (O14920 whole entry): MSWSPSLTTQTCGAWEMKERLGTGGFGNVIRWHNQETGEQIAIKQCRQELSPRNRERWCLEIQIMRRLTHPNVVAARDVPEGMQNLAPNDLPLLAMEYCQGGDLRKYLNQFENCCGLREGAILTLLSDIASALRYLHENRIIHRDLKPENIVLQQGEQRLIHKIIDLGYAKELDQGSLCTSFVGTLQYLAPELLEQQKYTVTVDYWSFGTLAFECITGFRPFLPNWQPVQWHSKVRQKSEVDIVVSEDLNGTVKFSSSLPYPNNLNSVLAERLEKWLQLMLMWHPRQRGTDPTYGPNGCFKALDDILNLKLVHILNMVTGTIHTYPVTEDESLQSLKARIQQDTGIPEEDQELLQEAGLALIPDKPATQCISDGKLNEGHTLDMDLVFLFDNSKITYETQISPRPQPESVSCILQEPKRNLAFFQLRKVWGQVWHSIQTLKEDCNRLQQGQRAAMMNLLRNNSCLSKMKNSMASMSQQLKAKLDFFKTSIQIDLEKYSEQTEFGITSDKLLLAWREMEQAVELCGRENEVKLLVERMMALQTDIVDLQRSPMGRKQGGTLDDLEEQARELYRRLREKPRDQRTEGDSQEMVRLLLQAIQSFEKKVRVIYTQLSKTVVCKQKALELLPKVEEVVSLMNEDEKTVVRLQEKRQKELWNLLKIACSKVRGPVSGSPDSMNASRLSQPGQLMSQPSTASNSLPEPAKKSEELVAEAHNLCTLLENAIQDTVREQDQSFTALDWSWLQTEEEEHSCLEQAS
Sequence of MARK4 (Q96L34 whole entry): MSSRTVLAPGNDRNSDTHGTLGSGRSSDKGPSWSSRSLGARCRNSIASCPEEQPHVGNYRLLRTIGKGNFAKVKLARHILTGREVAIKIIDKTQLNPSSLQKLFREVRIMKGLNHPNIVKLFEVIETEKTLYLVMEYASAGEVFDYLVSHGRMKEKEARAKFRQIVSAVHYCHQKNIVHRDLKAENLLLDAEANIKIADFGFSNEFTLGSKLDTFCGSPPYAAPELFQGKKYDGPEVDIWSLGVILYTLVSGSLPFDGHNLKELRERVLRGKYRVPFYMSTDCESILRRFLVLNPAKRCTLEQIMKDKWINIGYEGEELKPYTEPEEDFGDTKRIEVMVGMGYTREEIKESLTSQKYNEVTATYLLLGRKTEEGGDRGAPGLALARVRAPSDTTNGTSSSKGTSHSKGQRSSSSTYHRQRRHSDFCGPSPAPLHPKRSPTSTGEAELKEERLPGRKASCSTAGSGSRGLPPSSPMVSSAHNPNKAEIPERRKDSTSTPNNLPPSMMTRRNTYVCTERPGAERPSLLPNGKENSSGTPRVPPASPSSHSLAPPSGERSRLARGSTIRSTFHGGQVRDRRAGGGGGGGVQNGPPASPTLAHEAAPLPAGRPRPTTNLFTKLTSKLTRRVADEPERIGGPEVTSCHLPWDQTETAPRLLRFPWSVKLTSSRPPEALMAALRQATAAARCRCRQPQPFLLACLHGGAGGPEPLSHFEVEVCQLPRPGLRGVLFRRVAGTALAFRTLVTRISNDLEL
Sequence of PRKG1 (Q13976 whole entry): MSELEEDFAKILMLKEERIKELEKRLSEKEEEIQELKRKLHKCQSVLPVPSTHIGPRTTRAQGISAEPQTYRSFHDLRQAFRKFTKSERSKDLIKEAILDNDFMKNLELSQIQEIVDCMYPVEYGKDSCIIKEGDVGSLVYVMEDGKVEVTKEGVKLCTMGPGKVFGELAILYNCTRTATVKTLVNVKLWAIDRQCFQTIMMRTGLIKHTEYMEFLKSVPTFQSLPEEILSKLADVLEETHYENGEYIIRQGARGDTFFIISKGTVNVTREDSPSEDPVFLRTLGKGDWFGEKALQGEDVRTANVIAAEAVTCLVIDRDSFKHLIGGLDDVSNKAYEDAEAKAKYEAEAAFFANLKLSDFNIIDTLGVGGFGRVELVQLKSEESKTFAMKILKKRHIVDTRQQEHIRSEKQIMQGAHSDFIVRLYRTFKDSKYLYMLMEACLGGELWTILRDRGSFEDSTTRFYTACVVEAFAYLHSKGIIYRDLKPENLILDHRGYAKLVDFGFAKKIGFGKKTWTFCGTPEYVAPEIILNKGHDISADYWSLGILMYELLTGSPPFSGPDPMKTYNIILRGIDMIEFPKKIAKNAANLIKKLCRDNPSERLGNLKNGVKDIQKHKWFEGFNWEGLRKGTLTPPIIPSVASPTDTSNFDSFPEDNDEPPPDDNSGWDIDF
Sequence of MELK (Q14680 whole entry): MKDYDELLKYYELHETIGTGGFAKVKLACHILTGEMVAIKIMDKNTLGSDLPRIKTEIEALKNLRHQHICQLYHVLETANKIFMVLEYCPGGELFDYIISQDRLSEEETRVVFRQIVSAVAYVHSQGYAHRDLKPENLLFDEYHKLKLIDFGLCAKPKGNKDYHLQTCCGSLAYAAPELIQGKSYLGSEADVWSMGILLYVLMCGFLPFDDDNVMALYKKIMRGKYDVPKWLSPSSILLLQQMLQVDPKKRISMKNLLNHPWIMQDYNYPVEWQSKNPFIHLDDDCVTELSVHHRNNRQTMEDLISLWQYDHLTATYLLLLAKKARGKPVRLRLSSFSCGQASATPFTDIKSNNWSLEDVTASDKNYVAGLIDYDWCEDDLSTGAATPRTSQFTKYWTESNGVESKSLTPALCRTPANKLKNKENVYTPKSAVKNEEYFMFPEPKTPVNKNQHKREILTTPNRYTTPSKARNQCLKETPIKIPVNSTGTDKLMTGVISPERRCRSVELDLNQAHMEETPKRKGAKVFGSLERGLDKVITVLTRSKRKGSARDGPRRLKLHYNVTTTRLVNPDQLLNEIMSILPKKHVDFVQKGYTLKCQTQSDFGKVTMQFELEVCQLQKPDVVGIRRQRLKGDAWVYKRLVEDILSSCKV
Sequence of NEK9 (Q8TD19 whole entry): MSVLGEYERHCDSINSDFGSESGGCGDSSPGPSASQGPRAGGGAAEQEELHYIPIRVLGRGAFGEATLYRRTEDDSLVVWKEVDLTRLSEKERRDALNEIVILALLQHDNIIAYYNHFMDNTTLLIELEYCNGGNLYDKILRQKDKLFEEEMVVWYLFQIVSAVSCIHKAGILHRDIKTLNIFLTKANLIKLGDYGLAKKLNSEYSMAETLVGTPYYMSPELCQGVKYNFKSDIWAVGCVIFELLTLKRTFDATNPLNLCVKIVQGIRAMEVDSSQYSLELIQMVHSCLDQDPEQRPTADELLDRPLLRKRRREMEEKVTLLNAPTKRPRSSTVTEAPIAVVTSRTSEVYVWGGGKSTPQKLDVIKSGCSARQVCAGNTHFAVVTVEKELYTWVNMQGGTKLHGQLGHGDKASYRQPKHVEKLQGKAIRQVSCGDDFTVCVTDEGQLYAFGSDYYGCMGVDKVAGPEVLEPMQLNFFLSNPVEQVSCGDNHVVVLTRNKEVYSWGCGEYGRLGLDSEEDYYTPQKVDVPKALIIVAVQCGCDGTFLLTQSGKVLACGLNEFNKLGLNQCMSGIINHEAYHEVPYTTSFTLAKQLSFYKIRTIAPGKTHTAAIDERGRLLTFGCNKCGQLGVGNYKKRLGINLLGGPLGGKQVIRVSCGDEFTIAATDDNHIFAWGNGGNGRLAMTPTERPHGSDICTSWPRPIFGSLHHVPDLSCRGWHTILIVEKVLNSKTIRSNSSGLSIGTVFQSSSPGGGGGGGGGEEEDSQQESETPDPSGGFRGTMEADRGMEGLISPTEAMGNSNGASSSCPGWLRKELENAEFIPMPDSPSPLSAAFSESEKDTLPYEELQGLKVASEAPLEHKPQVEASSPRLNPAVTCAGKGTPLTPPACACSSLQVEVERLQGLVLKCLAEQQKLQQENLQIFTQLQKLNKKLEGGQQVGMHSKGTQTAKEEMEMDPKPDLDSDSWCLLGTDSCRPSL
Sequence of CHEK2 (O96017 whole entry): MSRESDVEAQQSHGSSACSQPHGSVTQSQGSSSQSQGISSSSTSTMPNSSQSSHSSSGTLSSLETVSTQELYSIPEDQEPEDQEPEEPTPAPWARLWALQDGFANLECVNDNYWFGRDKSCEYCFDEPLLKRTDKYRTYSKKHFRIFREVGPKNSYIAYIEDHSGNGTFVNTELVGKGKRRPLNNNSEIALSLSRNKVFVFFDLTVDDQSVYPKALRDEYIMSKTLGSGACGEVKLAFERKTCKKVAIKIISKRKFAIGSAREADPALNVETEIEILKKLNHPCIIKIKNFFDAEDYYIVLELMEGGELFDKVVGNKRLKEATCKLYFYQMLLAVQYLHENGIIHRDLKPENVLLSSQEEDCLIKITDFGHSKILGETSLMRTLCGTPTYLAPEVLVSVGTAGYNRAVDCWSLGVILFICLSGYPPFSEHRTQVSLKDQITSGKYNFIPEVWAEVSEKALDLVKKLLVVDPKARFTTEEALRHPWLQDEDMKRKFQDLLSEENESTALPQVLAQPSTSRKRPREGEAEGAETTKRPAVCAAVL
Sequence of PRKAG1 (P54619 whole entry): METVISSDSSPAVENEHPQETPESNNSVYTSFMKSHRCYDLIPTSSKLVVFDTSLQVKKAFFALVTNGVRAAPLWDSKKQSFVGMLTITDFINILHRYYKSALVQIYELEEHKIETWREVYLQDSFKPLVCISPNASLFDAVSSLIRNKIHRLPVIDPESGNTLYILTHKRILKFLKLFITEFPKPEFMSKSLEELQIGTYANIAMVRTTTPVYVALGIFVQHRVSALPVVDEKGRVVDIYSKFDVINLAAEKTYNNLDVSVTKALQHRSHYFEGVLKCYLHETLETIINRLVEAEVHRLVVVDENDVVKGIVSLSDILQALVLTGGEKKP

COc1nc(N[C@H]2CC[C@H](NS(=O)(=O)CC(C)C)CC2)nc2[nH]nc(N3CCOC[C@H]3C)c12 [compound 39, N-(trans-4-((4-Methoxy-3-((R)-3-methylmorpholino)-1H-pyrazolo[3,4-d]pyrimidin-6-yl)amino)cyclohexyl)-2-methylpropane-1-sulfonamide]
≥ 20 µM: all assays above
